Results from ChEMBL document CHEMBL6114991, “Design, synthesis, and biological evaluation of novel quinoline carboxylic acid based styryl/alkyne hybrid molecule as a potent anti-adipogenic and antidyslipidemic agent via activation of Wnt/β-catenin pathway” (Eur J Med Chem, 2025).
Calls of active or inactive are those of the source. The calls are words filed in the database; no cut-off is given here.

Legend:
[1] = Half life in Golden Syrian hamster at 100 mg/kg, po measured upto 24 hrs by LC-MS/MS analysis; assay type: ADME, organism-based, Mesocricetus auratus; details: in vivo
3T3-L1 [2] = assay: Cytotoxicity against mouse 3T3-L1 cells assessed as cell viability at 20 uM incubated for 48 hrs by MTT assay; assay type: toxicity, cell-based; details: 3t3-l1, 48 h
3T3-L1 [3] = assay: Anti-adipogenic activity in mouse 3T3-L1 cells assessed as reduction in lipid accumulation at 10 uM measured at upto 5 days; assay type: functional, cell-based; details: time <= 5.0 day
Syrian golden hamster [4] = assay: Anti-dyslipidemic activity in HFD-induced Golden Syrian hamster model assessed as decrease in CEBPalpha level at 100 mg/kg, po administered for 7 days by Western blot analysis; assay type: functional, organism-based; details: Mesocricetus auratus, time 7.0 day
3T3-L1 [5] = assay: Anti-adipogenic activity in mouse 3T3-L1 cells assessed as change in lipid content at 10 uM measured at 5 to 7 days; assay type: functional, cell-based; details: time 5-7 day
3T3-L1 [6] = assay: Inhibition of adipogenesis in mouse 3T3-L1 cells assessed as downregulation of PPARgamma expression at 10 uM measured at upto 3 days by immunoblotting analysis; assay type: functional, cell-based; details: time <= 3.0 day
3T3-L1 [7] = assay: Anti-adipogenic activity in mouse 3T3-L1 cells assessed as increase in beta-catenin mRNA expression at 10 uM incubated for 16 to 24 hrs; assay type: functional, cell-based; details: time 16-24 hrs
3T3-L1 [8] = assay: Induction of cell cycle arrest in mouse 3T3-L1 cells assessed as reduction in cyclin D1 level at 10 uM incubated for 16 to 24 hrs by immunoblotting analysis; assay type: functional, cell-based; details: time 16-24 hrs
3T3-L1 [9] = assay: Induction of cell cycle arrest in mouse 3T3-L1 cells assessed as reduction in CDK2 level at 10 uM incubated for 16 to 24 hrs by immunoblotting analysis; assay type: functional, cell-based; details: time 16-24 hrs
3T3-L1 [10] = assay: Anti-adipogenic activity in mouse 3T3-L1 cells assessed as change in lipid content at 10 uM measured at 3 to 7 days; assay type: functional, cell-based; details: time 3-7 day
3T3-L1 [11] = assay: Induction of cell cycle arrest in mouse 3T3-L1 cells assessed as reduction in percentage of cells at G1 phase at 10 uM incubated for 16 to 24 hrs by flow cytometry analysis; assay type: functional, cell-based; details: time 16-24 hrs
3T3-L1 [12] = assay: Anti-adipogenic activity in mouse 3T3-L1 cells assessed as increase in GATA2 mRNA expression by measuring fold change at 10 uM incubated for 16 to 24 hrs; assay type: functional; details: time 16-24 hrs
[13] = Volume of distribution in Golden Syrian hamster at 100 mg/kg, po measured upto 24 hrs by LC-MS/MS analysis; assay type: ADME, organism-based, Mesocricetus auratus; details: in vivo
3T3-L1 [14] = assay: Inhibition of adipogenesis in mouse 3T3-L1 cells assessed as downregulation of FABP4 expression at 10 uM measured at upto 3 days by immunoblotting analysis; assay type: functional, cell-based; details: time <= 3.0 day
3T3-L1 [15] = assay: Anti-adipogenic activity in mouse 3T3-L1 cells assessed as suppression of adipogenesis at 1 uM by oil red O staining based analysis; assay type: functional, cell-based
3T3-L1 [16] = assay: Induction of cell cycle arrest in mouse 3T3-L1 cells assessed as reduction in cyclin D3 level at 10 uM incubated for 16 to 24 hrs by immunoblotting analysis; assay type: functional, cell-based; details: time 16-24 hrs
[17] = Tmax in Golden Syrian hamster at 100 mg/kg, po measured upto 24 hrs by LC-MS/MS analysis; assay type: ADME, organism-based, Mesocricetus auratus; details: in vivo
3T3-L1 [18] = assay: Anti-adipogenic activity in mouse 3T3-L1 cells assessed as suppression of adipogenesis at 20 uM measured for 72 hrs by oil red O staining based analysis; assay type: functional
[19] = Toxicity in Golden Syrian hamster assessed as body weight gain at 100 mg/kg, po administered for 7 days; assay type: organism-based, Mesocricetus auratus; details: in vivo, 168 h, time 7 day
3T3-L1 [20] = assay: Inhibition of adipogenesis in mouse 3T3-L1 cells assessed as downregulation of PPARgamma expression at 10 uM measured at upto 7 days by immunoblotting analysis; assay type: functional, cell-based; details: time <= 7.0 day
[21] = Toxicity in Golden Syrian hamster assessed as reduction in adipocyte hypertrophy at 100 mg/kg, po administered for 7 days; assay type: organism-based, Mesocricetus auratus; details: in vivo, 168 h, time 7 day
3T3-L1 [22] = assay: Induction of cell cycle arrest in mouse 3T3-L1 cells assessed as reduction in CDK4 level at 10 uM incubated for 16 to 24 hrs by immunoblotting analysis; assay type: functional, cell-based; details: time 16-24 hrs
[23] = Clearance in Golden Syrian hamster at 100 mg/kg, po measured upto 24 hrs by LC-MS/MS analysis; assay type: ADME, organism-based, Mesocricetus auratus; details: in vivo
Syrian golden hamster [24] = assay: Anti-dyslipidemic activity in HFD-induced Golden Syrian hamster model assessed as decrease in eWAT accumulation at 100 mg/kg, po administered for 7 days; assay type: functional, organism-based; details: Mesocricetus auratus, time 7.0 day
[25] = Cmax in Golden Syrian hamster at 100 mg/kg, po measured upto 24 hrs by LC-MS/MS analysis; assay type: ADME, organism-based, Mesocricetus auratus; details: in vivo
3T3-L1 [26] = assay: Inhibition of adipogenesis in mouse 3T3-L1 cells assessed as downregulation of PPARgamma expression at 10 uM measured at upto 5 days by immunoblotting analysis; assay type: functional, cell-based; details: time <= 5.0 day
3T3-L1 [27] = assay: Anti-adipogenic activity in mouse 3T3-L1 cells assessed as reduction in lipid accumulation at 10 uM measured at upto 3 days; assay type: functional, cell-based; details: time <= 3.0 day
3T3-L1 [28] = assay: Inhibition of adipogenesis in mouse 3T3-L1 cells assessed as downregulation of FABP4 expression at 10 uM measured at upto 7 days by immunoblotting analysis; assay type: functional, cell-based; details: time <= 7.0 day
3T3-L1 [29] = assay: Inhibition of adipogenesis in mouse 3T3-L1 cells assessed as downregulation of FASN expression at 10 uM measured at upto 3 days by immunoblotting analysis; assay type: functional, cell-based; details: time <= 3.0 day
3T3-L1 [30] = assay: Inhibition of adipogenesis in mouse 3T3-L1 cells assessed as downregulation of FABP4 expression at 10 uM measured at upto 5 days by immunoblotting analysis; assay type: functional, cell-based; details: time <= 5.0 day
[31] = AUC in Golden Syrian hamster at 100 mg/kg, po measured upto 24 hrs by LC-MS/MS analysis; assay type: ADME, organism-based, Mesocricetus auratus; details: in vivo
3T3-L1 [32] = assay: Inhibition of adipogenesis in mouse 3T3-L1 cells assessed as downregulation of FASN expression at 10 uM measured at upto 7 days by immunoblotting analysis; assay type: functional, cell-based; details: time <= 7.0 day
3T3-L1 [33] = assay: Inhibition of adipogenesis in mouse 3T3-L1 cells assessed as downregulation of FASN expression at 10 uM measured at upto 5 days by immunoblotting analysis; assay type: functional, cell-based; details: time <= 5.0 day
[34] = MRT in Golden Syrian hamster at 100 mg/kg, po measured upto 24 hrs by LC-MS/MS analysis; assay type: ADME, organism-based, Mesocricetus auratus; details: in vivo
3T3-L1 [35] = assay: Anti-adipogenic activity in mouse 3T3-L1 cells at 20 uM relative to control; assay type: functional; details: time 72 hrs
[36] = Toxicity in Golden Syrian hamster assessed as reduction in liver weight at 100 mg/kg, po administered for 7 days; assay type: organism-based, Mesocricetus auratus; details: in vivo, 168 h, time 7 day
3T3-L1 [37] = assay: Anti-adipogenic activity in mouse 3T3-L1 cells assessed as reduction in lipid accumulation at 10 uM; assay type: functional
3T3-L1 [38] = assay: Cytotoxicity against mouse 3T3-L1 cells assessed as cell viability at 30 uM incubated for 48 hrs by MTT assay; assay type: toxicity, cell-based; details: 3t3-l1, 48 h
3T3-L1 [39] = assay: Inhibition of adipogenesis in mouse 3T3-L1 cells assessed as downregulation of CEBPalpha expression at 10 uM measured at upto 7 days by immunoblotting analysis; assay type: functional, cell-based; details: time <= 7.0 day
3T3-L1 [40] = assay: Induction of cell cycle arrest in mouse 3T3-L1 cells assessed as reduction in number of cells at G1 phase at 10 uM incubated for 16 to 24 hrs by flow cytometry analysis; assay type: functional, cell-based; details: time 16-24 hrs
3T3-L1 [41] = assay: Cytotoxicity against mouse 3T3-L1 cells assessed as cell viability upto 50 uM incubated for 48 hrs by MTT assay; assay type: toxicity, cell-based; details: 3t3-l1, 48 h

**Q.** What does the source list for `Cc1ccc(/C=C/c2ccc(-c3cc(C(=O)O)c4cc(F)ccc4n3)cc2)cc1`?
**A.** half-life [1]: 3.64 h; Activity (3T3-L1 [2]): Non-toxic; Activity (3T3-L1 [3]): Active; Activity (Syrian golden hamster [4]): Active; Activity (3T3-L1 [5]): Active; inhibition (3T3-L1 [6]): Active; Activity (3T3-L1 [7]): Active; Activity (3T3-L1 [8]): Active; Activity (3T3-L1 [9]): Active; Activity (3T3-L1 [10]): Active; Activity (3T3-L1 [11]): Active; fold change (FC) (3T3-L1 [12]): 10; Vd [13]: 14.79 L/kg; inhibition (3T3-L1 [14]): Active; Activity (3T3-L1 [15]): Active; Activity (3T3-L1 [16]): Active; Tmax [17]: 0.25 h; Activity (3T3-L1 [18]): 70%; Activity [19]: Non-toxic; inhibition (3T3-L1 [20]): Active; Activity [21]: Non-toxic; Activity (3T3-L1 [22]): Active; CL/F [23]: 46.8 mL/min/kg; Activity (Syrian golden hamster [24]): Active; Cmax [25]: 17700 ng/mL; inhibition (3T3-L1 [26]): Active; Activity (3T3-L1 [27]): Active; inhibition (3T3-L1 [28]): Active; inhibition (3T3-L1 [29]): Active; inhibition (3T3-L1 [30]): Active; AUC at 24 h [31]: 35700 ng·h/mL; inhibition (3T3-L1 [32]): Active; inhibition (3T3-L1 [33]): Active; MRT [34]: 2.89 h; Activity (3T3-L1 [35]): 64%; Activity [36]: Non-toxic; inhibition at 10 µM (3T3-L1 [37]): ~50%; Activity (3T3-L1 [38]): Toxic; inhibition (3T3-L1 [39]): Active; Activity (3T3-L1 [40]): Active; Activity (3T3-L1 [41]): Non-toxic
